Assay results published in patent US4022962A, “Carbamylguanidine antimicrobial compounds” (Cooper Laboratories, Inc., priority 1975, dated 1977).
In brackets after ≈: the same amount, converted by molar mass. Structures can show the parent of a compound that is named as a salt.

Key:
S. Mutans = assay: quantitative serial dilution test, minimal inhibitory concentration; type: cell-based; details: Streptococcus mutans, brain-heart infusion broth, half strength, 37° C., 36 hours
Experimental: A quantitative serial dilution test may also be performed by the following procedure.
A 20 mg/ml solution of the compound to be tested is prepared in a standard brain-heart infusion broth medium which has been diluted with water to one-half standard strength. Serial dilutions are prepared by adding 1 ml of the solution to a test tube containing 9 ml of medium. Five milliliters of the resulting solution are then added to another test tube containing 5 ml of the medium. The resulting solution is then again diluted by the same procedure. Ordinarily one tenfold dilution and four twofold dilutions are made. The procedure can be continued if more dilute solutions are required. Each of the series of tubes containing solutions of the compounds to be assayed is inoculated with two drops of a heavy culture of the chosen microorganisms in the brain-heart infusion broth. The tubes are incubated at 37° C. for 36 hours and the most dilute solution showing no microbial growth is noted. The concentration of this solution is reported as the minimal inhibitory concentration (MIC).
The minimum inhibitory concentration of a number of the compounds of this invention with respect to the microorganism S. Mutans were determined by the procedure described above. Chlorhexidine diacetate a commercially successful antimicrobial was used as a control.

mice = assay: acute oral toxicity in mice; type: in vivo; details: 8 gms/Kg orally
Experimental: Acute oral toxicity of the compounds of this invention is determined in mice by the following procedure. The mice are fasted overnight, then formed into groups of 10 for testing. The animals in each group are fed a chosen dose and the dose is varied from group to group to cover a range of doses. The groups are then observed for a period of five days and the number of dead animals in each group is noted each day.

dental plaque = details: cited from earlier work
[1] = when swallowed; cited from earlier work
[2] = in vivo; cited from earlier work
[3] = at the prevailing pH of the mouth; cited from earlier work
[4] = adsorption to extracted enamel tooth surfaces, spectrophotometric; set-up: species or system human; details: after no more was removed; fresh portions of the solutions
Experimental: Absorption of the compounds of this invention to extracted, non-carious, unprepared enamel tooth surfaces was investigated by the following procedure. Extracted human teeth, having their roots coated with wax so that only the enamel crowns were exposed, were immersed in 10 ml portions of stirred aqueous solutions of the test compound having a concentration of 10 micrograms/milliliter. After 10 minutes, the teeth were removed and the amount of test compound removed from the solution by adsorption was determined spectrophotometrically. […] The adsorption of the compounds of this invention was compared with that of chlorhexidine and found to be substantially greater. […] After no more of the test compounds was removed from the solution by adsorption, the teeth were immersed in fresh portions of the solutions.

Row | Structure (SMILES) | MIC (S. Mutans) [µg/mL] | further results
1 | N=C(NCCCCNC(=N)NC(=O)Nc1ccc(Cl)cc1)NC(=O)Nc1ccc(Cl)cc1 [1,4-bis(4-chlorophenylcarbamylguanidino)butane] | 0.625 (≈ 1.3 µM) | 
2 | N=C(NC(=O)NCCCCCCNC(=O)NC(=N)Nc1ccc(Cl)cc1)Nc1ccc(Cl)cc1 [1,6-Bis(p-chlorophenylamidinoureido)hexane] | 2.5 (≈ 4.93 µM) | 
3 | N=C(NCCCCCCNC(=N)NC(=O)Nc1ccc(Cl)cc1)NC(=O)Nc1ccc(Cl)cc1 [1,6-Bis-(p-chlorophenylcarbamylguanidino)hexane] |  | acute oral toxicity (mice): essentially atoxic
4 | CCCCC(CC)CNC(=O)NC(=N)NCCCCCCNC(=N)NC(=O)NCC(CC)CCCC (centres unmarked) [1,6-bis(2-ethylhexylcarbamylguanidino)hexane] | 0.625 (≈ 1.22 µM) | 
5 | N=C(NCCCCCCNC(=N)NC(=O)Nc1ccc(Cl)cc1)NC(=O)Nc1ccc(Cl)cc1 [1,6-bis(4-chlorophenylcarbamylguanidino)hexane diacetate] | 0.078 | 
6 | N=C(NCCCCCCNC(=N)NC(=O)Nc1ccccc1)NC(=O)Nc1ccccc1 [1,6-bis(phenylcarbamylguanidino)hexane] | 0.625 (≈ 1.43 µM) | 
7 | N=C(NCCCCCCCNC(=N)NC(=O)Nc1ccc(Cl)cc1)NC(=O)Nc1ccc(Cl)cc1 [1,7-bis(4-chlorophenylcarbamylguanidino)heptane dihydrochloride] | 0.312 | 
8 | CCCCC(CC)CNC(=N)NC(=N)NCCCCCCNC(=N)NC(=N)NCC(CC)CCCC (centres unmarked) [alexidine, 1,6-bis(2-ethylhexylbiguanidino)hexane] |  | clinical antiplaque effect (dental plaque): clinically effected antiplaque agents; adsorption to gastrointestinal mucosa [1]: adsorbed to the gastrointestinal mucosa; local irritation of the oral mucosa and tongue [2]: produce local irritation of the oral mucosa and tongue; ionization state [3]: almost entirely cationic
9 | [H]/N=C(\N/C(=N/[H])NCCCCCCNC(=N)NC(=N)Nc1ccc(Cl)cc1)Nc1ccc(Cl)cc1 [chlorhexidine, 1,6-bis-(p-chlorophenylbiguanidino)hexane] |  | further adsorption from fresh portions of solution [4]: No further adsorption; clinical antiplaque effect (dental plaque): clinically effected antiplaque agents; adsorption to gastrointestinal mucosa [1]: adsorbed to the gastrointestinal mucosa; local irritation of the oral mucosa and tongue [2]: produce local irritation of the oral mucosa and tongue; ionization state [3]: almost entirely cationic

More lines, main results first:

Row | MIC (S. Mutans) [µg/mL] | Structure (SMILES) | further results
10 | 0.078 | N=C(NCCCCCNC(=N)NC(=O)Nc1ccc(Cl)cc1)NC(=O)Nc1ccc(Cl)cc1 [1,5-bis(4-chlorophenylcarbamylguanidino)pentane monoacetate] | 
11 | 0.312 | N=C(NCCCCCCNC(=N)NC(=O)Nc1ccccc1Cl)NC(=O)Nc1ccccc1Cl [1,6-bis(2-chlorophenylcarbamylguanidino)hexane diacetate] | 
12 | 0.078 | N=C(NCCCCCCNC(=N)NC(=O)Nc1cccc(Cl)c1)NC(=O)Nc1cccc(Cl)c1 [1,6-bis(3-chlorophenylcarbamylguanidino)hexane diacetate] | 
13 | 0.312 | N=C(NCCCCCCNC(=N)NC(=O)Nc1cccc(C(F)(F)F)c1)NC(=O)Nc1cccc(C(F)(F)F)c1 [1,6-bis(3-trifluoromethylphenylcarbamylguanidino)hexane dihydrochloride] | 
14 | 0.312 | N=C(NCCCCCCNC(=N)NC(=O)Nc1ccc(Br)cc1)NC(=O)Nc1ccc(Br)cc1 [1,6-bis(4-bromophenylcarbamylguanidino)hexane diacetate] | 
15 | 0.156 | N=C(NCCCCCCNC(=N)NC(=O)Nc1ccc(F)cc1)NC(=O)Nc1ccc(F)cc1 [1,6-bis(4-fluorophenylcarbamylguanidino)hexane diacetate] | 
16 | 0.078 | N=C(NCCCCCCNC(=N)NC(=N)Nc1ccc(Cl)cc1)NC(=N)Nc1ccc(Cl)cc1 [chlorhexidine diacetate, reference compound] | 
